System: Mitochondria-located protein genes
Test: DNA chip mRNA expression in yeast, mitochondria-located protein genes (Table 2)
Assay type: cell-based, Saccharomyces cerevisiae S288C
Details: cells incubated two hours with the chemical substance
Method in brief: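 Cells were grown at 25° C. in YPD, treated at logarithmic phase for 2 h with a chemical at a concentration inhibiting growth but not causing death, and compared with untreated cultures. Labeled cDNA was hybridized to a DNA chip carrying all yeast genes, and the expression ratio was taken from scanner fluorescence.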

SMILES: C=CC=O [(14), acrolein]
- The level of expressed mRNA in the presence of chemical substance/The level of expressed mRNA in the absence of chemical substance (yeast gene YJR121W): 0.7
- The level of expressed mRNA in the presence of chemical substance/The level of expressed mRNA in the absence of chemical substance (yeast gene YKL003C): 2.0
- The level of expressed mRNA in the presence of chemical substance/The level of expressed mRNA in the absence of chemical substance (yeast gene YKL016C): 1.6
- The level of expressed mRNA in the presence of chemical substance/The level of expressed mRNA in the absence of chemical substance (yeast gene YKL141W): 1.4
- The level of expressed mRNA in the presence of chemical substance/The level of expressed mRNA in the absence of chemical substance (yeast gene YKL142W): 2.3
- The level of expressed mRNA in the presence of chemical substance/The level of expressed mRNA in the absence of chemical substance (yeast gene YKL148C): 0.8
- The level of expressed mRNA in the presence of chemical substance/The level of expressed mRNA in the absence of chemical substance (yeast gene YKL170W): 1.3
- The level of expressed mRNA in the presence of chemical substance/The level of expressed mRNA in the absence of chemical substance (yeast gene YKL194C): 1.4
- The level of expressed mRNA in the presence of chemical substance/The level of expressed mRNA in the absence of chemical substance (yeast gene YKR066C): 1.5
- The level of expressed mRNA in the presence of chemical substance/The level of expressed mRNA in the absence of chemical substance (yeast gene YLL041C): 1.2
- The level of expressed mRNA in the presence of chemical substance/The level of expressed mRNA in the absence of chemical substance (yeast gene YLR038C): 1.6
- The level of expressed mRNA in the presence of chemical substance/The level of expressed mRNA in the absence of chemical substance (yeast gene YLR259C): 0.8
- The level of expressed mRNA in the presence of chemical substance/The level of expressed mRNA in the absence of chemical substance (yeast gene YLR295C): 1.2
- The level of expressed mRNA in the presence of chemical substance/The level of expressed mRNA in the absence of chemical substance (yeast gene YLR304C): 0.7
- The level of expressed mRNA in the presence of chemical substance/The level of expressed mRNA in the absence of chemical substance (yeast gene YLR348C): 1.0
- The level of expressed mRNA in the presence of chemical substance/The level of expressed mRNA in the absence of chemical substance (yeast gene YLR395C): 1.7
- The level of expressed mRNA in the presence of chemical substance/The level of expressed mRNA in the absence of chemical substance (yeast gene YML054C): 2.1
- The level of expressed mRNA in the presence of chemical substance/The level of expressed mRNA in the absence of chemical substance (yeast gene YML120C): 0.8
- The level of expressed mRNA in the presence of chemical substance/The level of expressed mRNA in the absence of chemical substance (yeast gene YML129C): 1.4
- The level of expressed mRNA in the presence of chemical substance/The level of expressed mRNA in the absence of chemical substance (yeast gene YMR023C): 1.6
- The level of expressed mRNA in the presence of chemical substance/The level of expressed mRNA in the absence of chemical substance (yeast gene YMR035W): 1.3
- The level of expressed mRNA in the presence of chemical substance/The level of expressed mRNA in the absence of chemical substance (yeast gene YMR083W): 0.8
- The level of expressed mRNA in the presence of chemical substance/The level of expressed mRNA in the absence of chemical substance (yeast gene YMR089C): 0.9
- The level of expressed mRNA in the presence of chemical substance/The level of expressed mRNA in the absence of chemical substance (yeast gene YMR152W): 1.1
- The level of expressed mRNA in the presence of chemical substance/The level of expressed mRNA in the absence of chemical substance (yeast gene YMR203W): 0.7
- The level of expressed mRNA in the presence of chemical substance/The level of expressed mRNA in the absence of chemical substance (yeast gene YMR267W): 1.0
- The level of expressed mRNA in the presence of chemical substance/The level of expressed mRNA in the absence of chemical substance (yeast gene YNL055C): 0.9
- The level of expressed mRNA in the presence of chemical substance/The level of expressed mRNA in the absence of chemical substance (yeast gene YNL071W): 0.8
- The level of expressed mRNA in the presence of chemical substance/The level of expressed mRNA in the absence of chemical substance (yeast gene YNL073W): 0.7
- The level of expressed mRNA in the presence of chemical substance/The level of expressed mRNA in the absence of chemical substance (yeast gene YNL104C): 0.9
- The level of expressed mRNA in the presence of chemical substance/The level of expressed mRNA in the absence of chemical substance (yeast gene YNL256W): 0.7
- The level of expressed mRNA in the presence of chemical substance/The level of expressed mRNA in the absence of chemical substance (yeast gene YOL096C): 1.4
- The level of expressed mRNA in the presence of chemical substance/The level of expressed mRNA in the absence of chemical substance (yeast gene YOR020C): 1.6
- The level of expressed mRNA in the presence of chemical substance/The level of expressed mRNA in the absence of chemical substance (yeast gene YOR037W): 1.0
- The level of expressed mRNA in the presence of chemical substance/The level of expressed mRNA in the absence of chemical substance (yeast gene YOR100C): 1.4
- The level of expressed mRNA in the presence of chemical substance/The level of expressed mRNA in the absence of chemical substance (yeast gene YOR130C): 1.3
- The level of expressed mRNA in the presence of chemical substance/The level of expressed mRNA in the absence of chemical substance (yeast gene YOR142W): 0.8
- The level of expressed mRNA in the presence of chemical substance/The level of expressed mRNA in the absence of chemical substance (yeast gene YOR150W): 1.6
- The level of expressed mRNA in the presence of chemical substance/The level of expressed mRNA in the absence of chemical substance (yeast gene YOR176W): 0.8
- The level of expressed mRNA in the presence of chemical substance/The level of expressed mRNA in the absence of chemical substance (yeast gene YOR187W): 0.6
- The level of expressed mRNA in the presence of chemical substance/The level of expressed mRNA in the absence of chemical substance (yeast gene YOR316C): 1.0
- The level of expressed mRNA in the presence of chemical substance/The level of expressed mRNA in the absence of chemical substance (yeast gene YPL040C): 1.1
- The level of expressed mRNA in the presence of chemical substance/The level of expressed mRNA in the absence of chemical substance (yeast gene YPL134C): 1.4
- The level of expressed mRNA in the presence of chemical substance/The level of expressed mRNA in the absence of chemical substance (yeast gene YPL135W): 1.1
- The level of expressed mRNA in the presence of chemical substance/The level of expressed mRNA in the absence of chemical substance (yeast gene YPL215W): 1.2
- The level of expressed mRNA in the presence of chemical substance/The level of expressed mRNA in the absence of chemical substance (yeast gene YPL262W): 1.2
- The level of expressed mRNA in the presence of chemical substance/The level of expressed mRNA in the absence of chemical substance (yeast gene YPR024W): 0.7
- The level of expressed mRNA in the presence of chemical substance/The level of expressed mRNA in the absence of chemical substance (yeast gene YPR037C): 1.6
- The level of expressed mRNA in the presence of chemical substance/The level of expressed mRNA in the absence of chemical substance (yeast gene YPR047W): 1.0
- The level of expressed mRNA in the presence of chemical substance/The level of expressed mRNA in the absence of chemical substance (yeast gene YPR134W): 1.5

— patent US8192962B2, “Processes for detecting toxic substances” (Daikin Industries, Ltd., priority 2001, dated 2012)
